The assay has as its system common cocklebur. In words: Test Example 4: field spray, herbicidal activity (flumiclorac-pentyl). The format is in vivo, Xanthium strumarium. Particulars: index 0-100; common cocklebur height about 65 cm; 100 g/hectare alone; 1000 liters per hectare spray; after 4 days. How it is done: The herbicidal effect is evaluated with indices of 0 to 100 at intervals of 5, wherein “0” means that there was no or little difference in the degree of germination or growth between the treated plants and the untreated plants at the time of examination, “100” means that the test plants died completely.
Ten (10) parts of flumiclorac-pentyl were dissolved in 80 parts of xylene, after adding 10 parts of Sorpol 3005X (produced by Toho Chemical), the solution was well stirred and mixed to give 10% emulsifiable concentrate of flumiclorac-pentyl. From the aqueous dilution of said 10% emulsifiable concentrate of flumiclorac-pentyl, with a aqueous dilution of 25% emulsifiable concentrate of thiometon (commercial name: Ekatin EC, produced by Sankyo), 45% emulsifiable concentrate of oxydeprofos (commercial name: Estox EC, produced by Nihon Bayer Agrochem) or 50% emulsifiable concentrate of fenthion (commercial name: baycid EC, produced by Nihon Bayer Agrochem), prepared each aqueous dilution of the prescribed concentration of the present formulation.
Their aqueous dilution of the present formulation, with 1000 liters per hectare, were sprayed over a place in the field where common cocklebur (the height: about 65 cm) were growing. After 4 days from the application, the herbicidal activity were examined.

`CCCCCOC(=O)COc1cc(N2C(=O)C3=C(CCCC3)C2=O)c(F)cc1Cl` [flumiclorac-pentyl, pentyl[2-chloro-5-(cyclohex-1-ene-1,2-dicarboximido)-4-fluorophenoxy]acetate] had a Herbicidal activity of 30.
